Publication PMC12088000, “Design, synthesis and in silico molecular modelling studies of 2-Hydrazineyl-2-oxoethyl-4-(1H-pyrrol-1-yb) benzoate derivatives: a potent dual DHFR and ENR-reductase inhibitors with antitubercular, antibacterial and cytotoxic potential” (PLOS One, 2025)
Values after ≈ are worked out from the molar mass of the structure shown.

Legend:
MtDHFR = MtDHFR (Mycobacterium tuberculosis, UniProt P9WNX1); assay: biochemical; assay type: biochemical
S. aureus ATCC 29213 = assay: Antibacterial activity, broth microdilution (S. aureus); conditions: Staphylococcus aureus, ATCC29213, read-out: S. aureus ATCC 29213 (Gram +ve) MIC
Protocol: (§1) All twenty-eight molecules were evaluated for in vitro antimicrobial activities that were assessed against Gram +ve and Gram -ve strains.
(§2) The antibacterial inhibitory effects of all compounds were assessed using the broth microdilution method, with ciprofloxacin serving as the reference medication.

[1] = target: InhA enzyme from M. tuberculosis (Mycobacterium tuberculosis, UniProt P9WGR1); assay: InhA inhibition assay; assay type: biochemical; conditions: for inhibition at 50 µM: read-out: % InhA Inhibition at 50 µM
Sequence of InhA enzyme from M. tuberculosis (P9WGR1 whole entry, looked up): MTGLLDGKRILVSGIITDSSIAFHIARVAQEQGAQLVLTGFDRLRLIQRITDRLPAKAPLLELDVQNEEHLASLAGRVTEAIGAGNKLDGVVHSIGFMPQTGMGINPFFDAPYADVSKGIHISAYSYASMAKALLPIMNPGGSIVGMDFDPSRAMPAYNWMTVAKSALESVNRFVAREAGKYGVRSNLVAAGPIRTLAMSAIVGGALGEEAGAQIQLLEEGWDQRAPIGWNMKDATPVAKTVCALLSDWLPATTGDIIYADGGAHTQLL

E. coli ATCC 25922 = assay: Antibacterial activity, broth microdilution (E. coli); conditions: for MIC: Escherichia coli, ATCC25922, read-out: E. coli ATCC 25922 (Gram –ve) MIC, broth microdilution; for E. coli ATCC 25922 (Gram –ve) MIC: broth microdilution
Protocol: as §1, §2

M. tuberculosis H37Rv = assay: Antitubercular activity, Microplate Alamar Blue test (MABA); assay type: cell-based, Mycobacterium tuberculosis; conditions: n = 3; for MIC: Mycobacterium tuberculosis, H37RV
[2] = tested on: human lung cancer cell line A549; assay: MTT-based cytotoxicity; assay type: cell-based; conditions: MTT assay; for IC50: Homo sapiens, A549
Protocol: The cytotoxic effects of seventeen selected molecules were assessed against the A549 human lung adenocarcinoma cell line using the MTT assay. Cisplatin served as the reference drug for comparison. Lower IC50 values indicate higher cytotoxicity.
The cytotoxic activity (IC50) of selected compounds against A549 (lung adenocarcinoma) MV cell-lines was evaluated by performing cellular conversion of MTT [3-(4,5-dimethylthiazo-2-yl)-2,5-diphenyl-tetrazolium bromide] into a formazan product. This evaluation was conducted up to a concentration of 50 mg/mL using the Promega Cell Titre 96 non-radioactive cell proliferation assay, with cisplatin serving as the positive control. Cytotoxicity is commonly quantified by determining the IC50 value, which represents the quantity of a substance that reduces the optical density of treated cells by 50% compared to untreated cells, as measured by the MTT experiment. The results are presented as IC50 values (mean ± standard error of the mean (SEM) obtained from three separate and independent measurements.

Sequence of MtDHFR (P9WNX1 whole entry): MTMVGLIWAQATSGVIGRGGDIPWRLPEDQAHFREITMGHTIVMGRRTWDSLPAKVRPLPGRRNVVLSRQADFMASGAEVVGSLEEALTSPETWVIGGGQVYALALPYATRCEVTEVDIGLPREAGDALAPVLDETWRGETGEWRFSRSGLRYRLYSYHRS

| SMILES | IC50 (MtDHFR) | MtDHFR inhibition, in words, compared with trimethoprim (MtDHFR) | MIC (S. aureus ATCC 29213) | inhibition at 50 µM [1] | MIC (E. coli ATCC 25922) | MIC (M. tuberculosis H37Rv) | IC50 [2] | M. tuberculosis H37Rv MIC values (M. tuberculosis H37Rv) | E. coli ATCC 25922 (Gram –ve) MIC (E. coli ATCC 25922) | % InhA Inhibition at 50 µM [1] | IC50 human lung cancer cell line A549 [2] |
| --- | --- | --- | --- | --- | --- | --- | --- | --- | --- | --- | --- |
| CC(=NNC(=O)COC(=O)c1ccc(-n2cccc2)cc1)c1ccc(O)cc1 [Compound 5j, 2-(2-(1-(4-hydroxyphenyl)ethylidene)hydrazinyl)-2-oxoethyl 4-(1H-pyrrol-1-yl)benzoate] | 70 µM | moderate inhibition | 12.5 µg/mL (≈ 33.1 µM) | 32% | 3.12 µg/mL (≈ 8.27 µM) | 1.6 µg/mL (≈ 4.24 µM) | 255 ± 0.3 µg/mL (≈ 676 µM) | – | – | – | – |
| O=C(COC(=O)c1ccc(-n2cccc2)cc1)NN=Cc1ccc(Cl)cc1 [Compound 6d, 2-(2-(4-chlorobenzylidene)hydrazinyl)-2-oxoethyl 4-(1H-pyrrol-1-yl)benzoate] | 62 µM | moderate inhibition | 3.12 µg/mL (≈ 8.17 µM) | 18% | 1.6 µg/mL (≈ 4.19 µM) | 0.8 µg/mL (≈ 2.1 µM) | 262 ± 0.7 µg/mL (≈ 686 µM) | 0.8 µg/mL | – | – | – |
| C/C(=N\NC(=O)COC(=O)c1ccc(-n2cccc2)cc1)c1ccc(Br)cc1 [Compound 5b, 2-(2-(1-(4-bromophenyl)ethylidene) hydrazineyl)-2-oxoethyl-4-(1H-pyrrol-1-yl) benzoate] | 23 µM | greater inhibition characteristics than trimethoprim | 1.6 µg/mL (≈ 3.63 µM) | 22% | 0.4 to 0.8 µg/mL (≈ 0.908 to 1.82 µM) | 0.8 µg/mL (≈ 1.82 µM) | 266 ± 0.3 µg/mL (≈ 604 µM) | 0.8 µg/mL | 0.4 µg/mL | – | – |
| CC(=NNC(=O)COC(=O)c1ccc(-n2cccc2)cc1)c1ccc(Cl)cc1 [Compound 5c, 2-(2-(1-(4-chlorophenyl)ethylidene)hydrazinyl)-2-oxoethyl 4-(1H-pyrrol-1-yl)benzoate] | 100 µM | – | 6.25 µg/mL (≈ 15.8 µM) | – | 1.6 µg/mL (≈ 4.04 µM) | 1.6 µg/mL (≈ 4.04 µM) | – | – | – | – | – |
| COc1ccc(C(C)=NNC(=O)COC(=O)c2ccc(-n3cccc3)cc2)cc1 [Compound 5i, 2-(2-(1-(4-methoxyphenyl)ethylidene)hydrazinyl)-2-oxoethyl 4-(1H-pyrrol-1-yl)benzoate] | 129 µM | – | 6.25 µg/mL (≈ 16 µM) | – | 1.6 µg/mL (≈ 4.09 µM) | 3.12 µg/mL (≈ 7.97 µM) | – | – | – | – | – |
| O=C(COC(=O)c1ccc(-n2cccc2)cc1)NN=Cc1ccccc1Br [Compound 6b, 2-(2-(2-bromobenzylidene)hydrazinyl)-2-oxoethyl 4-(1H-pyrrol-1-yl)benzoate] | 130 µM | – | 3.12 µg/mL (≈ 7.32 µM) | – | 1.6 µg/mL (≈ 3.75 µM) | 1.6 µg/mL (≈ 3.75 µM) | – | – | – | no inhibition | – |
| CC(=NNC(=O)COC(=O)c1ccc(-n2cccc2)cc1)c1ccc(N)cc1 [Compound 5o, 2-(2-(1-(4-aminophenyl)ethylidene)hydrazinyl)-2-oxoethyl 4-(1H-pyrrol-1-yl)benzoate] | 90 µM | – | 12.5 µg/mL (≈ 33.2 µM) | – | 3.12 µg/mL (≈ 8.29 µM) | 3.12 µg/mL (≈ 8.29 µM) | – | – | – | – | – |
| COc1ccc(C=NNC(=O)COC(=O)c2ccc(-n3cccc3)cc2)cc1 [Compound 6e, 2-(2-(4-methoxybenzylidene)hydrazinyl)-2-oxoethyl 4-(1H-pyrrol-1-yl)benzoate] | 69 µM | moderate inhibition | 6.25 µg/mL (≈ 16.6 µM) | – | 1.6 µg/mL (≈ 4.24 µM) | 1.6 µg/mL (≈ 4.24 µM) | – | – | – | no inhibition | – |
| CC(=NNC(=O)COC(=O)c1ccc(-n2cccc2)cc1)c1ccc(C)cc1 [Compound 5e, 2-oxo-2-(2-(1-(p-tolyl)ethylidene)hydrazinyl)ethyl 4-(1H-pyrrol-1-yl)benzoate] | 118 µM | – | 12.5 µg/mL (≈ 33.3 µM) | – | 3.12 µg/mL (≈ 8.31 µM) | 1.6 µg/mL (≈ 4.26 µM) | – | – | – | – | – |
| CC(=NNC(=O)COC(=O)c1ccc(-n2cccc2)cc1)c1ccc(Br)cc1Br [Compound 5m, 2-(2-(1-(2,4-dibromophenyl)ethylidene)hydrazinyl)-2-oxoethyl 4-(1H-pyrrol-1-yl)benzoate] | 90 µM | – | 6.25 µg/mL (≈ 12 µM) | – | 0.4 to 0.8 µg/mL (≈ 0.77 to 1.54 µM) | 3.12 µg/mL (≈ 6.01 µM) | – | – | 0.8 µg/mL | – | – |
| O=C(O)c1cn(C2CC2)c2cc(N3CCNCC3)c(F)cc2c1=O [Ciprofloxacin, reference compound] | – | – | 2 µg/mL (≈ 6.04 µM) | – | 2 µg/mL (≈ 6.04 µM) | – | – | – | – | – | – |
| O=C1CCC(=O)N(C(=O)COC(=O)c2ccc(-n3cccc3)cc2)N1 [Compound 4d, 2-(3,6-dioxotetrahydropyridazin-1(2H)-yl)-2-oxoethyl 4-(1H-pyrrol-1-yl)benzoate] | 31 µM | greater inhibition characteristics than trimethoprim | 6.25 µg/mL (≈ 18.3 µM) | – | 1.6 µg/mL (≈ 4.69 µM) | 1.6 µg/mL (≈ 4.69 µM) | – | – | – | – | – |
| NC(=O)c1cnccn1 [Pyrazinamide, reference compound] | – | – | – | – | – | 3.12 µg/mL (≈ 25.3 µM) | – | – | – | – | – |
| C=C1CC(=O)N(C(=O)COC(=O)c2ccc(-n3cccc3)cc2)NC1=O [Compound 4g, 2-(4-methylene-3,6-dioxotetrahydropyridazin-1(2H)-yl)-2-oxoethyl 4-(1H-pyrrol-1-yl)benzoate] | 56 µM | moderate inhibition | 3.12 µg/mL (≈ 8.83 µM) | – | 0.8 µg/mL (≈ 2.26 µM) | 1.6 µg/mL (≈ 4.53 µM) | – | – | – | – | – |
| COc1cccc(C(C)=NNC(=O)COC(=O)c2ccc(-n3cccc3)cc2)c1 [Compound 5h, 2-(2-(1-(3-methoxyphenyl)ethylidene)hydrazinyl)-2-oxoethyl 4-(1H-pyrrol-1-yl)benzoate] | 124 µM | – | 12.5 µg/mL (≈ 31.9 µM) | – | 3.12 µg/mL (≈ 7.97 µM) | 1.6 µg/mL (≈ 4.09 µM) | – | – | – | – | – |
| O=C(OCC(=O)n1[nH]c(=O)ccc1=O)c1ccc(-n2cccc2)cc1 [Compound 4e, 2-(3,6-dioxo-2,3-dihydropyridazin-1(6H)-yl)-2-oxoethyl 4-(1H-pyrrol-1-yl)benzoate] | 32 µM | greater inhibition characteristics than trimethoprim | 6.25 µg/mL (≈ 18.4 µM) | – | 1.6 µg/mL (≈ 4.72 µM) | 1.6 µg/mL (≈ 4.72 µM) | – | – | – | – | – |
| CC(=NNC(=O)COC(=O)c1ccc(-n2cccc2)cc1)c1ccc(Cl)cc1Cl [Compound 5n, 2-(2-(1-(2,4-dichlorophenyl)ethylidene)hydrazinyl)-2-oxoethyl 4-(1H-pyrrol-1-yl)benzoate] | 93 µM | – | 6.25 µg/mL (≈ 14.5 µM) | – | 0.4 to 0.8 µg/mL (≈ 0.93 to 1.86 µM) | 3.12 µg/mL (≈ 7.25 µM) | – | – | 0.8 µg/mL | – | – |
| [H]/N=C(/N)N[C@H]1[C@H](O)[C@@H](O)[C@H](O[C@@H]2O[C@@H](C)[C@](O)(C=O)[C@H]2O[C@@H]2O[C@@H](CO)[C@H](O)[C@@H](O)[C@@H]2NC)[C@@H](N/C(N)=N\[H])[C@@H]1O [Streptomycin, reference compound] | – | – | 2 µg/mL (≈ 3.44 µM) | – | – | 0.8 µg/mL (≈ 1.38 µM) | – | – | – | – | – |
| CC(=NNC(=O)COC(=O)c1ccc(-n2cccc2)cc1)c1cccc(O)c1 [Compound 5p, 2-(2-(1-(3-hydroxyphenyl)ethylidene)hydrazinyl)-2-oxoethyl 4-(1H-pyrrol-1-yl)benzoate] | 115 µM | – | 12.5 µg/mL (≈ 33.1 µM) | – | 3.12 µg/mL (≈ 8.27 µM) | 3.12 µg/mL (≈ 8.27 µM) | – | – | – | – | – |
| NNC(=O)c1ccncc1 [Isoniazid, reference compound] | – | – | – | > 99% | – | 1.6 µg/mL (≈ 11.7 µM) | > 450 µg/mL | – | – | – | – |
| N.N.[Cl][Pt][Cl] [Cisplatin, reference compound] | – | – | – | – | – | – | – | – | – | – | 9.90 µg/mL |
| C/C(=N\NC(=O)COC(=O)c1ccc(-n2cccc2)cc1)c1ccc([N+](=O)[O-])cc1 [Compound 5d, 2-(2-(1-(4-nitrophenyl)ethylidene) hydrazineyl) -2-oxoethyl-4-(1H-pyrrol-1-yl) benzoate] | 121 µM | – | 6.25 µg/mL (≈ 15.4 µM) | – | 1.6 µg/mL (≈ 3.94 µM) | 1.6 µg/mL (≈ 3.94 µM) | – | – | – | – | – |
